The values that follow come from the SangsterLogP compilation.

This series can be described thus: method code SF-AS, from DOI: 10.1007/bf00778146.

Take `OCC(CO)(CO)Nc1nc(N2CC2)nc(N2CC2)n1`: the logP – broadly, the decadic logarithm of the partition coefficient of the neutral form, usually between octanol and water – is -1.76.

Turning to `OCC(CO)Nc1nc(N2CC2)nc(N2CC2)n1`, the logP was -1.54.

In turn, `CC1(C)OCC(Nc2nc(N3CC3)nc(N3CC3)n2)CO1` yielded a logP of 0.11.

Consider `CC(C)C1OCC(CO)(Nc2nc(N3CC3)nc(N3CC3)n2)CO1` (stereo unspecified), for which the logP is 0.22.

For the molecule `CCC1(Nc2nc(N3CC3)nc(N3CC3)n2)COC(C)(C)OC1`, the lipophilicity (logP) was 0.85.

The molecule `COc1ccc(C2OCC(CO)(Nc3nc(N4CC4)nc(N4CC4)n3)CO2)cc1OC` (stereo unspecified) displayed a logP of 0.89.

Turning to `CCC(CO)(CO)Nc1nc(N2CC2)nc(N2CC2)n1`, the log partition coefficient (logP) was -0.32.

The molecule `CC(CO)(CO)Nc1nc(N2CC2)nc(N2CC2)n1` yielded a logP of -0.75.

For `OCC1(Nc2nc(N3CC3)nc(N3CC3)n2)COC(c2ccco2)OC1` (stereo unspecified), the logP was found to be 0.27.

The molecule `CC1(C)OCC(CO)(Nc2nc(N3CC3)nc(N3CC3)n2)CO1` returned a lipophilicity (logP) of -0.52.

In turn, `OCC1(Nc2nc(N3CC3)nc(N3CC3)n2)COC(c2ccccc2)OC1` (stereo unspecified) came in with a logP of 0.62.
